Earlier results as cited in PMC8287861 (Frontiers in Microbiology, 2021).
Values after ≈ are worked out from the molar mass of the structure shown. Like-named read-outs stand apart in the source and are kept apart here.

Assays:
[1] = test system: Enterobacterales producing ESBLs and carbapenemases; set-up: method as in Rubio-Aparicio et al., 2019; conditions: ref Rubio-Aparicio et al., 2019
[2] = test system: isogenic strains of P. aeruginosa that produced KPC; set-up: method as in Lomovskaya et al., 2020a; conditions: ref Lomovskaya et al., 2020a
[3] = test system: KPC-producing strains of Klebsiella pneumoniae and blaKPC mutants; set-up: method as in Nelson et al., 2019; conditions: ref Nelson et al., 2019
[4] = test system: carbapenem resistant Acinetobacter baumannii; conditions: ref Nelson et al., 2020b
[5] = test system: Pseudomonas aeruginosa; set-up: method as in Lomovskaya et al. (2021); conditions: panel reflecting current MIC distribution (N = 500); QPX7728 at 8 μg/ml; ref Lomovskaya et al. (2021)
[6] = test system: Pseudomonas aeruginosa; set-up: method as in Lomovskaya et al. (2021); conditions: challenge panel, QPX7728 at 8 μg/ml, ref Lomovskaya et al. (2021)
[7] = test system: β-lactamases; conditions: ref Hecker et al. (2020)
[8] = 275 clinical isolates, meropenem alone

C[C@@H](O)[C@H]1C(=O)N2C(C(=O)O)=C(SC3CN(C4=NCCS4)C3)[C@H](C)[C@H]12 [Tebipenem]
MIC50 ([1]; All Enterobacterales (N = 972)): 0.25 µg/mL (≈ 0.652 µM)
MIC90 ([1]; All Enterobacterales (N = 972)): > 64 µg/mL
MIC50 ([1]; CRE KPC (N = 292)): 64/>64 μg/ml
MIC90 ([1]; CRE KPC (N = 292)): 64/>64 μg/ml
MIC50 ([1]; CRE MBL (N = 226)): 32 µg/mL (≈ 83.4 µM)
MIC90 ([1]; CRE MBL (N = 226)): > 64 µg/mL
MIC50 ([1]; CRE OXA-48 (N = 47)): 32 µg/mL (≈ 83.4 µM)
MIC90 ([1]; CRE OXA-48 (N = 47)): 64 µg/mL (≈ 167 µM)
MIC50 ([1]; ESBLs, no CRE (N = 371)): ≤ 0.06 µg/mL
MIC90 ([1]; ESBLs, no CRE (N = 371)): 0.5 µg/mL (≈ 1.3 µM)
MIC50 ([1]; Non-CP CRE): 8 µg/mL (≈ 20.9 µM)
MIC90 ([1]; Non-CP CRE): 16 µg/mL (≈ 41.7 µM)

C[C@@H](O)[C@H]1C(=O)N2C(C(=O)[O-])=C(SC3Cn4cnc[n+]4C3)[C@H](C)[C@H]12 (stereo partly shown) [Biapenem]
Biapenem MIC ([2]; PAM4126, mexR (MexAB-OprM)): 64 µg/mL
Biapenem MIC ([2]; PAM4129, nfxB (MexCD-OprJ)): 8 µg/mL
Biapenem MIC ([2]; PAM4132, mexT (MexEF-OprM)): 128 µg/mL
Biapenem MIC ([2]; PAM4150, mexZ (MexXY-OprM)): 64 µg/mL
Biapenem MIC ([2]; PAM4224, Wild-type): 64 µg/mL
Biapenem MIC ([2]; PAM4365, MexA::Tet): 64 µg/mL
MIC of the vector only strain ([2]; vector only counterpart of PAM4126, mexR (MexAB-OprM)): 0.125 µg/mL
MIC of the vector only strain ([2]; vector only counterpart of PAM4129, nfxB (MexCD-OprJ)): 0.03 µg/mL
MIC of the vector only strain ([2]; vector only counterpart of PAM4132, mexT (MexEF-OprM)): 0.5 µg/mL
MIC of the vector only strain ([2]; vector only counterpart of PAM4150, mexZ (MexXY-OprM)): 0.25 µg/mL
MIC of the vector only strain ([2]; vector only counterpart of PAM4224, Wild-type): 0.25 µg/mL
MIC of the vector only strain ([2]; vector only counterpart of PAM4365, MexA::Tet): 0.25 µg/mL

COCC1=C(C(=O)O)N2C(=O)[C@@H](NC(=O)/C(=N\OC)c3csc(N)n3)[C@H]2SC1 [Cefpodoxime]
MIC50 ([1]; All Enterobacterales (N = 972)): >64/>64 μg/ml
MIC90 ([1]; All Enterobacterales (N = 972)): >64/>64 μg/ml
MIC50 ([1]; CRE KPC (N = 292)): >64/>64 μg/ml
MIC90 ([1]; CRE KPC (N = 292)): >64/>64 μg/ml
MIC50 ([1]; CRE MBL (N = 226)): >64/>64 μg/ml
MIC90 ([1]; CRE MBL (N = 226)): >64/>64 μg/ml
MIC50 ([1]; CRE OXA-48 (N = 47)): >64/>64 μg/ml
MIC90 ([1]; CRE OXA-48 (N = 47)): >64/>64 μg/ml
MIC50 ([1]; ESBLs, no CRE (N = 371)): >64/>64 μg/ml
MIC90 ([1]; ESBLs, no CRE (N = 371)): >64/>64 μg/ml
MIC50 ([1]; Non-CP CRE): >64/>64 μg/ml
MIC90 ([1]; Non-CP CRE): >64/>64 μg/ml

C[C@@H](O)[C@H]1C(=O)N2C(C(=O)O)=C(S[C@@H]3CN[C@H](C(=O)N(C)C)C3)[C@H](C)[C@H]12 [Meropenem, meropenem]
MIC ([3]; KP1252, KPC-3, TEM-1, SHV-11/FL): 64 µg/mL (≈ 167 µM)
MIC ([3]; KPM3191, KPC-3:: DDK duplication at aa#831 (KPC-29)): 4 µg/mL (≈ 10.4 µM)
MIC ([3]; KPM3192, KPC-3:: D179Y (KPC-31)): 0.5 µg/mL (≈ 1.3 µM)
MIC ([3]; KPM3200, KPC-3::duplication of EAVI (aa#278)): 64 µg/mL (≈ 167 µM)
MIC ([3]; KPM3205, KPC-3 ::duplication of KKDY (aa#273)): 16 µg/mL (≈ 41.7 µM)
MIC ([3]; KPM3210, KPC-2::D179N): 4 µg/mL (≈ 10.4 µM)
MIC ([3]; KPM3212, deletion of ELNSAI at aa#497): 1 µg/mL (≈ 2.61 µM)
MIC ([3]; KPM3213, KPC-2::D179Y (KPC-31), selected from KP1099): 4 µg/mL (≈ 10.4 µM)
MIC ([3]; KPM3214, KPC-2::D179A): 2 µg/mL (≈ 5.22 µM)
MIC ([3]; KPM3493, KPC-3::duplication of EL at aa#164 (KPC-25)): 1 µg/mL (≈ 2.61 µM)
MIC ([3]; KPM3494, KPC-3::R167S): 32 µg/mL (≈ 83.4 µM)
MIC ([3]; KPM3495, KPC-3::A175V): 32 µg/mL (≈ 83.4 µM)
MIC ([3]; KPM3511, KPC-3::P174Q): 4 µg/mL (≈ 10.4 µM)
MIC ([3]; KPM3512, KPC-3:: P174L): 8 µg/mL (≈ 20.9 µM)
MIC50 [4, 8]: 64 µg/mL (≈ 167 µM)
MIC90 [4, 8]: > 64 µg/mL
MIC90 of meropenem ([4]; with QPX7728 at 4 μg/ml): 8 µg/mL
MIC90 of meropenem ([4]; with QPX7728 at 8 μg/ml): 4 µg/mL
increase in meropenem potency ([4]; with increasing concentrations of QPX7728 (1–16 μg/ml)): 8–16 fold
MIC50 [5]: 0.5 µg/mL (≈ 1.3 µM)
MIC90 [5]: 16 µg/mL (≈ 41.7 µM)
MIC50 ([6]; All (N = 290)): 16 µg/mL (≈ 41.7 µM)
MIC90 ([6]; All (N = 290)): >64 µg/mL
MIC50 ([6]; MBL (N = 61)): >64 µg/mL
MIC90 ([6]; MBL (N = 61)): >64 µg/mL
MIC50 ([6]; No MBL (N = 229)): 16 µg/mL (≈ 41.7 µM)
MIC90 ([6]; No MBL (N = 229)): 64 µg/mL (≈ 167 µM)

COc1ccc2c(c1C(=O)O)OB(O)[C@@H](Sc1nncs1)C2 [RPX7546]
β-lactamase inhibition (in words) [7]: improved potency against MBLs
